biological target: mGluR4 (UniProt Q14833); assay: mGluR4 potentiation assay: increase in response to an EC20 concentration of agonist (species not given); assay type: cell-based; conditions: EC50 for potentiation of mGluR4; table does not state human or rat
Protocol: The disclosed compounds and compositions can be evaluated for their ability to act as a potentiator of metabotropic glutamate receptor activity, in particular mGluR4 activity, by any suitable known methodology known in the art. For example, Chinese Hamster Ovary (CHO) cells transfected with human mGluR4 or […] co-transfected with rat mGluR4 and the G-protein regulated Inwardly Rectifying Potassium channel (GIRK) were plated in clear bottom assay plates for assay in a Hamamatsu FDSS Fluorometric Plate Reader. The cells were loaded with either a Ca2+-sensitive fluorescent dye or the thallium responsive dye and the plates were washed and placed into a suitable kinetic plate reader. For human mGluR4 assays, a fluorescence baseline was established for 3-5 seconds, the disclosed compounds were then added to the cells, and the response in cells was measured. Approximately two and a half minutes later, a concentration of mGluR4 orthosteric agonist (e.g. glutamate or L-AP4) eliciting approximately 20% (EC20) of the maximal agonist response was added to the cells, and the response was measured. Two minutes later, a concentration of mGluR4 agonist (e.g. glutamate or L-AP4) eliciting 80% (EC80) of the maximal agonist response was added to the cells, and the response was measured. For rat mGluR4/GIRK experiments, a baseline was established for approximately five seconds, disclosed compounds were added, and either an EC20 or EC80 concentration of agonist was added approximately two and one half minutes later. Potentiation of the agonist response of mGluR4 by the disclosed compounds was observed as an increase in response to the EC20 concentration of agonist in the presence of compound compared to the response to agonist in the absence of compound. Similarly, antagonism of the agonist response of mGluR4 by the disclosed compounds was observed as a decrease in response to the EC80 concentration of agonist in the presence of compound compared to the response to agonist in the absence of compound.
The above described assay operated in two modes. In the first mode, a range of concentrations of the disclosed compounds are added to cells, followed by a single fixed concentration of agonist. If the compound acts as a potentiator, an EC50 value for potentiation and a maximum extent of potentiation by the compound at this concentration of agonist is determined by non-linear curve fitting. If the compound acts as a noncompetitive antagonist, an IC50 value is determined by non-linear curve fitting. In the second mode, several fixed concentrations of the disclosed compounds are added to various wells on a plate, followed by a range in concentrations of agonist for each concentration of disclosed compound. The EC50 values for the agonist at each concentration of compound are determined by non-linear curve fitting. A decrease in the EC50 value of the agonist with increasing concentrations of the sample compound (a leftward shift of the agonist concentration-response curve) is an indication of the degree of mGluR4 potentiation at a given concentration of the sample compound. A decrease in the maximal response of the agonist with increasing concentrations of the sample compounds, with or without a rightward shift in agonist potency, is an indication of the degree of noncompetitive antagonism at mGluR4. The second mode also indicates whether the sample compounds also affect the maximum response to mGluR4 to agonists.
These compounds are positive allosteric modulators (potentiators) of human and rat mGluR4 and were selective for mGluR4 compared to the other seven subtypes of metabotropic glutamate receptors.

| Structure (SMILES) | EC50 |
| --- | --- |
| c1cnc2c(Nc3cccc4c3cnn4CC3CCC3)n[nH]c2c1 [Example 34, N-(1-(cyclobutylmethyl)-1H-indazol-4-yl)-1H-pyrazolo[4,3-b]pyridin-3-amine] | 4300 nM |
| Cn1nc(N2CCOCC2)c2ccc(Nc3n[nH]c4cccnc34)cc21 [Example 35, N-(1-methyl-3-morpholino-1H-indazol-6-yl)-1H-pyrazolo[4,3-b]pyridin-3-amine] | 992 nM |
| CC(C)CC1CC(=O)N(c2nn(C)c3cc(Nc4n[nH]c5cccnc45)ccc23)C1 (centres unmarked) [Example 36, N-(6-((1H-pyrazolo[4,3-b]pyridin-3-yl)amino)-1-methyl-1H-indazol-3-yl)-4-isobutylpyrrolidin-2-one] | 526 nM |
| Cn1nc(O)c2ccc(Nc3n[nH]c4cccnc34)cc21 [Example 37, 6-((1H-pyrazolo[4,3-b]pyridin-3-yl)amino)-1-methyl-1H-indazol-3-ol] | 3150 nM |
| Cn1nc(N2CC(C)(C3CC3)CC2=O)c2ccc(Nc3n[nH]c4cccnc34)cc21 (centres unmarked) [Example 39, 1-(6-((1H-pyrazolo[4,3-b]pyridin-3-yl)amino)-1-methyl-1H-indazol-3-yl)-4-cyclopropyl-4-methylpyrrolidin-2-one] | 765 nM |
| Cn1nc(N2CC(C)(C3CC3)CC2=O)c2ccc(Nc3n[nH]c4ccccc34)cc21 (centres unmarked) [Example 41, 1-(6-((1H-indazol-3-yl)amino)-1-methyl-1H-indazol-3-yl)-4-cyclopropyl-4-methylpyrrolidin-2-one] | 1420 nM |
| CC1CCC(=O)N1c1nn(C)c2cc(Nc3n[nH]c4cccnc34)ccc12 (centres unmarked) [Example 42, 1-(6-((1H-pyrazolo[4,3-b]pyridin-3-yl)amino)-1-methyl-1H-indazol-3-yl)-5-methylpyrrolidin-2-one] | 4000 nM |
| CC(C)Oc1nn(C)c2cc(Nc3n[nH]c4cccnc34)ccc12 [Example 44, N-(3-isopropoxy-1-methyl-1H-indazol-6-yl)-1H-pyrazolo[4,3-b]pyridin-3-amine] | 413 nM |
| COc1ccc2[nH]nc(Nc3ccc4c(C5CC5)nn(C)c4c3)c2c1 [Example 47, N-(3-cyclopropyl-1-methyl-1H-indazol-6-yl)-5-methoxy-1H-indazol-3-amine] | > 10000 nM |
| Cc1ccccc1Cc1nn(C)c2cc(Nc3n[nH]c4cccnc34)ccc12 [Example 48, N-(1-methyl-3-(2-methylbenzyl)-1H-indazol-6-yl)-1H-pyrazolo[4,3-b]pyridin-3-amine] | 4400 nM |
| Cc1ccccc1Cc1nn(C)c2cc(Nc3n[nH]c4nccnc34)ccc12 [Example 49, N-(1-methyl-3-(2-methylbenzyl)-1H-indazol-6-yl)-1H-pyrazolo[3,4-b]pyrazin-3-amine] | 4600 nM |
| Cc1cc(Nc2n[nH]c3cccnc23)cc2c1cnn2C [Example 50, N-(1,4-dimethyl-1H-indazol-6-yl)-1H-pyrazolo[4,3-b]pyridin-3-amine] | 323 nM |
| COc1cc(Nc2n[nH]c3cccnc23)cc2c1cnn2C [Example 52, N-(4-methoxy-1-methyl-1H-indazol-6-yl)-1H-pyrazolo[4,3-b]pyridin-3-amine] | 718 nM |
| Cn1nc(C(C)(C)O)c2ccc(Nc3n[nH]c4cccnc34)cc21 [Example 54, 2-(6-((1H-pyrazolo[4,3-b]pyridin-3-yl)amino)-1-methyl-1H-indazol-3-yl)propan-2-ol] | 865 nM |
| Cn1ncc2cc(Nc3n[nH]c4cccnc34)ccc21 [Example 55, N-(1-methyl-1H-indazol-5-yl)-1H-pyrazolo[4,3-b]pyridin-3-amine] | 790 nM |
| Cn1cc2cc(Nc3n[nH]c4cccnc34)ccc2n1 [Example 56, N-(2-methyl-2H-indazol-5-yl)-1H-pyrazolo[4,3-b]pyridin-3-amine] | 315 nM |
| Cn1ncc2cc(Nc3n[nH]c4c3CCCC4)ccc21 [Example 57, 1-methyl-N-(4,5,6,7-tetrahydro-1H-indazol-3-yl)-1H-indazol-5-amine] | > 10000 nM |
| CC(C)n1ncc2cc(Nc3n[nH]c4cccnc34)cc(Cl)c21 [Example 58, N-(7-chloro-1-isopropyl-1H-indazol-5-yl)-1H-pyrazolo[4,3-b]pyridin-3-amine] | 2290 nM |
| Cc1c2cc(Nc3n[nH]c4cccnc34)ccc2nn1C(C)C [Example 59, N-(2-isopropyl-3-methyl-2H-indazol-5-yl)-1H-pyrazolo[4,3-b]pyridin-3-amine] | > 10000 nM |
| CC(C)n1ncc2cc(Nc3n[nH]c4nccnc34)cc(Cl)c21 [Example 60, N-(7-chloro-1-isopropyl-1H-indazol-5-yl)-1H-pyrazolo[3,4-b]pyrazin-3-amine] | 790 nM |
| CC(C)n1cc2cc(Nc3n[nH]c4cccnc34)cc(Cl)c2n1 [Example 62, N-(7-chloro-2-isopropyl-2H-indazol-5-yl)-1H-pyrazolo[4,3-b]pyridin-3-amine] | 914 nM |
| Cn1ncc2cc(Nc3n[nH]c4c3CCCC4)cc(Cl)c21 [Example 67, 7-chloro-1-methyl-N-(4,5,6,7-tetrahydro-1H-indazol-3-yl)-1H-indazol-5-amine] | > 10000 nM |
| Cc1c2cc(Nc3n[nH]c4cccnc34)ccc2nn1C1CCCC1 [Example 68, N-(2-cyclopentyl-3-methyl-2H-indazol-5-yl)-1H-pyrazolo[4,3-b]pyridin-3-amine] | > 10000 nM |

Now those with a lower EC50, led by results:

| EC50 | Structure (SMILES) |
| --- | --- |
| 263 nM | COC(=O)CCCNc1nn(C)c2cc(Nc3n[nH]c4cccnc34)ccc12 [Example 38, methyl 4-((6-((1H-pyrazolo[4,3-b]pyridin-3-yl)amino)-1-methyl-1H-indazol-3-yl)amino)butanoate] |
| 147 nM | C=C(c1nn(C)c2cc(Nc3n[nH]c4cccnc34)ccc12)C(F)(F)F [Example 40, N-(1-methyl-3-(3,3,3-trifluoroprop-1-en-2-yl)-1H-indazol-6-yl)-1H-pyrazolo[4,3-b]pyridin-3-amine] |
| 160 nM | [2H]C([2H])([2H])n1nc(C2CC2)c2ccc(Nc3n[nH]c4ncccc34)cc21 [Example 43, N-(3-cyclopropyl-1-(methyl-d3)-1H-indazol-6-yl)-1H-pyrazolo[3,4-b]pyridin-3-amine] |
| 104 nM | Cc1cc(COc2nn(C)c3cc(Nc4n[nH]c5cccnc45)ccc23)on1 [Example 45, N-(1-methyl-3-((3-methylisoxazol-5-yl)methoxy)-1H-indazol-6-yl)-1H-pyrazolo[4,3-b]pyridin-3-amine] |
| 215 nM | CC(c1nn(C)c2cc(Nc3n[nH]c4cccnc34)ccc12)C(F)(F)F (centres unmarked) [Example 46, N-(1-methyl-3-(1,1,1-trifluoropropan-2-yl)-1H-indazol-6-yl)-1H-pyrazolo[4,3-b]pyridin-3-amine] |
| 150 nM | Cc1cc(Nc2n[nH]c3nccnc23)cc2c1cnn2C [Example 51, N-(1,4-dimethyl-1H-indazol-6-yl)-1H-pyrazolo[3,4-b]pyrazin-3-amine] |
| 247 nM | COc1cc(Nc2n[nH]c3nccnc23)cc2c1cnn2C [Example 53, N-(4-methoxy-1-methyl-1H-indazol-6-yl)-1H-pyrazolo[3,4-b]pyrazin-3-amine] |
| 133 nM | Cc1nn(C(C)C)c2ccc(Nc3n[nH]c4cccnc34)cc12 [Example 61, N-(1-isopropyl-3-methyl-1H-indazol-5-yl)-1H-pyrazolo[4,3-b]pyridin-3-amine] |
| 85 nM | Cn1ncc2cc(Nc3n[nH]c4cccnc34)cc(Cl)c21 [Example 63, N-(7-chloro-1-methyl-1H-indazol-5-yl)-1H-pyrazolo[4,3-b]pyridin-3-amine] |
| 67 nM | Clc1cc(Nc2n[nH]c3nccnc23)cc2cnn(CC3CCC3)c12 [Example 64, N-(7-chloro-1-(cyclobutylmethyl)-1H-indazol-5-yl)-1H-pyrazolo[3,4-b]pyrazin-3-amine] |
| 76 nM | Clc1cc(Nc2n[nH]c3cccnc23)cc2cnn(CC3CCC3)c12 [Example 65, N-(7-chloro-1-(cyclobutylmethyl)-1H-indazol-5-yl)-1H-pyrazolo[4,3-b]pyridin-3-amine] |
| 117 nM | Clc1cc(Nc2n[nH]c3cccnc23)cc2cn(CC3CCC3)nc12 [Example 66, N-(7-chloro-2-(cyclobutylmethyl)-2H-indazol-5-yl)-1H-pyrazolo[4,3-b]pyridin-3-amine] |
